Values after ≈ are worked out from the molar mass of the structure shown. Counter-ions that a name gives are not always drawn. Like-named read-outs stand apart in the source and are kept apart here.
Columns and labels:
S. aureus 2554 = assay: Test D cross resistance antibacterial assay (MIC); format: cell-based; conditions: relative to MIC against S. aureus UC-76
Method: (§1) Test D-Cross Resistance Antibacterial Assay
(§2) The compounds of the present invention were tested against an assortment of ciprofloxacin resistant E. coli and S. aureus organisms described below using standard microtitration techniques (Cohen, et al., Antimicrob. Agents Chemother., 1985;28:766; Heifetz, et al., Antimicrob. Agents Chemother., 1974;6:124). […].
S. aureus 2554: Isogenic to S. aureus 2552, with point mutation at position 80 of grlA subunit.

S. aureus 2552 = assay: Test D cross resistance antibacterial assay (MIC); format: cell-based; conditions: for MIC: Staphylococcus aureus, 2552, upregulated norA pump, read-out: Minimum Inhibitory Concentrations S. aureus 2552; for MIC fold increase S. aureus 2552 (in parentheses): relative to MIC against S. aureus UC-76
Method: as §1, §2

S. aureus 29213 = assay: Test A antibacterial assay, standard microtitration (MIC); format: cell-based
Method: (§3) Test A-Antibacterial Assay
(§4) The compounds of the present invention were tested against an assortment of Gram-negative and Gram-positive organisms using standard microtitration techniques (Cohen, et al., Antimicrob. Agents Chemother., 1985;28:766; Heifetz, et al., Antimicrob. Agents Chemother:, 1974;6:124). […]

S. pyogenes C203 = assay: as above; format: cell-based; conditions: Streptococcus pyogenes
Method: as §3, §4

E. coli B90 = assay: as above; format: cell-based; conditions: Escherichia coli
Method: as §3, §4

E. faecalis RB1 = assay: as above; format: cell-based; conditions: Enterococcus faecalis
Method: as §3, §4

E. coli Tol C = assay: as above; format: cell-based; conditions: Escherichia coli, read-out: Minimum Inhibitory Concentrations E. coli Tol C
Method: as §3, §4

E. coli MC 4100 = assay: as above; format: cell-based; conditions: Escherichia coli
Method: as §3, §4

S. aureus 2558 = assay: Test D cross resistance antibacterial assay (MIC); format: cell-based; conditions: relative to MIC against S. aureus UC-76
Method: as §1, §2
S. aureus 2558: Isogenic to S. aureus 2554, with point mutation at position 84 of gyrA subunit.

N. gonorrhoeae 2637 = assay: Test D cross resistance antibacterial assay (MIC); format: cell-based, Neisseria gonorrhoeae; conditions: Neisseria gonorrhoeae, 2637; parent strain, derivative of MS11; read-out: Minimum Inhibitory Concentrations N. g. 2637
Method: as §1, §2
N. gonorrhoeae 2637 (N.g. 2637) is a derivative of Neisseria gonorrhoeae MS11 containing a TAC-LAC recA to allow for control of homologous recombination [Tonjum T. et al. Molecular Microbiology 1995, 16, 451-64].

N. gonorrhoeae 2709 = assay: Test D cross resistance antibacterial assay (MIC); format: cell-based, Neisseria gonorrhoeae; conditions: for MIC: Neisseria gonorrhoeae, 2709, read-out: Minimum Inhibitory Concentrations N. g. 2709; for MIC fold increase N. g. 2709 (in parentheses): relative to MIC against N. g. 2637
Method: as §1, §2
N. gonorrhoeae 2709 (N.g. 2709): Isogenic to N. gonorrhoeae 2637 contains gyrA quinolone-resistant determining region (QRDR) mutations (S91F D95G).

E. coli gyrase = E. coli gyrase (Escherichia coli, UniProt P0AES4+P0AES6); assay: biochemical; conditions: supercoiling of relaxed pBR322, 30 minutes at 37° C.
N. gonorrhoeae 2693 = assay: Test D cross resistance antibacterial assay (MIC); format: cell-based, Neisseria gonorrhoeae; conditions: relative to MIC against N. g. 2637
Method: as §1, §2
N. gonorrhoeae 2693 (N.g. 2693): Isogenic to N. gonorrhoeae 2709 containing parC QRDR mutations [P88S and E91K].

S. pyogenes = assay: Test C in vivo activity, median protective dose in mice given lethal systemic infections; conditions: PO, lethal systemic infection with S. pyogenes
S. aureus UC-76 = assay: Test D cross resistance antibacterial assay (MIC); format: cell-based; conditions: Staphylococcus aureus, UC76; wild type sensitive laboratory strain; read-out: Minimum Inhibitory Concentrations S. aureus UC-76
Method: as §1, §2
S. aureus UC-76: Typical sensitive laboratory strain (Wild type).

[1] = Gram positive, S. pyogenes C203, read-out: Minimum Inhibitory Concentrations S. pyogenes C203
[2] = Gram negative, E. coli B90, read-out: Minimum Inhibitory Concentrations E. coli B90
[3] = Gram positive, E. faecalis RB1, read-out: Minimum Inhibitory Concentrations E. faecalis RB1
[4] = MC4100, Gram negative, E. coli MC 4100, read-out: Minimum Inhibitory Concentrations E. coli MC 4100

E. coli gyrase, sequence (P0AES4 whole entry, one chain of several): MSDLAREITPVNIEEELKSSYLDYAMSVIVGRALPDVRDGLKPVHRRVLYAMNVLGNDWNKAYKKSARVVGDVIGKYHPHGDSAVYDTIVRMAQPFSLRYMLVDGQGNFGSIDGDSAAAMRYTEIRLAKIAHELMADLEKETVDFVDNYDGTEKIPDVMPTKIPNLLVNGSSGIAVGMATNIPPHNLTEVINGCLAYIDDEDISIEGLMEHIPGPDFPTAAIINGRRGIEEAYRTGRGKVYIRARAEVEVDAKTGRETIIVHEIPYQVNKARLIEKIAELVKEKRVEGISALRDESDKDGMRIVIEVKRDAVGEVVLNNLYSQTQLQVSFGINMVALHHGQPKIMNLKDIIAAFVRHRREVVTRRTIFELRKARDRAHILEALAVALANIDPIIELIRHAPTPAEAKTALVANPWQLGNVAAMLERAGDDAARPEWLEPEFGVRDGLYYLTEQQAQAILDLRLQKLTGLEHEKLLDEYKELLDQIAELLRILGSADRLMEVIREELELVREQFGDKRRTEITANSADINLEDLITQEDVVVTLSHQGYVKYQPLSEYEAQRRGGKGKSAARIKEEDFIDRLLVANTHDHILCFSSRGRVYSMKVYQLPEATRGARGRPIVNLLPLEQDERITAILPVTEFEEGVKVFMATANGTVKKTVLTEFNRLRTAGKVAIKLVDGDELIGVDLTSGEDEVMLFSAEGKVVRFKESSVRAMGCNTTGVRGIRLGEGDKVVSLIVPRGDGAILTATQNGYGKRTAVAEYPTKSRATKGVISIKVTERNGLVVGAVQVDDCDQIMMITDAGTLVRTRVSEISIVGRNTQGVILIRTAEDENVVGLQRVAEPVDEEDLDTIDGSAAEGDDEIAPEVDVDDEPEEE

In the case of `CN[C@@H](C)[C@@H]1CCN(c2c(F)cc3c(=O)[nH]c(=O)n(C4CC4)c3c2C)C1` [Example 2, 1-Cyclopropyl-6-fluoro-8-methyl-7-[(R)-3-((S)-1-methylaminoethyl)pyrrolidin-1-yl]-1H-quinazolinedione], the “MIC fold increase S. aureus 2554 (in parentheses)” value (S. aureus 2554) is reported as “(2x)”, the MIC (S. aureus 2552) is reported as 0.5 µg/mL (≈ 1.39 µM) and the “MIC fold increase S. aureus 2552 (in parentheses)” value (S. aureus 2552) is reported as “(2x)”. The MIC (S. aureus 29213; Staphylococcus aureus, Gram positive, S. aureus 29213, read-out: Minimum Inhibitory Concentrations S. aureus 29213) was 0.5 µg/mL (≈ 1.39 µM), the MIC (S. pyogenes C203; [1]) was 0.03 µg/mL (≈ 0.0832 µM) and the MIC (E. coli B90; [2]) was 0.5 µg/mL (≈ 1.39 µM). The MIC (E. faecalis RB1; [3]) was 0.25 µg/mL (≈ 0.694 µM), the MIC (E. coli Tol C) was 0.25 µg/mL (≈ 0.694 µM) and the MIC (E. coli MC 4100; [4]) was 8 µg/mL (≈ 22.2 µM). For the same compound, the “MIC fold increase S. aureus 2558 (in parentheses)” value (S. aureus 2558) was “(4x)”, the MIC (N. gonorrhoeae 2637) was 0.5 µg/mL and the MIC (N. gonorrhoeae 2709) was 4 µg/mL (≈ 11.1 µM). The “MIC fold increase N. g. 2709 (in parentheses)” value (N. gonorrhoeae 2709) was “(8x)”, the IC50 (E. coli gyrase) was 2100 nM and the “MIC fold increase N. g. 2693 (in parentheses)” value (N. gonorrhoeae 2693) was “(16x)”. It also gave a PD50 (S. pyogenes) of 10.8 mg/kg and an MIC (S. aureus UC-76) of 0.25 µg/mL (≈ 0.694 µM).

For `CN[C@@H](C)[C@@H]1CCN(c2c(F)cc3c(=O)[nH]c(=O)n(C4CC4)c3c2OC)C1` [Example 3, 1-Cyclopropyl-6-fluoro-8-methoxy-7-[(R)-3-((S)-1-methylaminoethyl)pyrrolidin-1-yl]-1H-quinazolinedione], the melting point was 162 to 164 °C, the MIC (S. pyogenes C203; [1]) was 0.13 µg/mL (≈ 0.345 µM) and the MIC (E. coli B90; [2]) was 2 µg/mL (≈ 5.31 µM). For the same compound, the MIC (E. faecalis RB1; [3]) was 2 µg/mL (≈ 5.31 µM), the MIC (E. coli Tol C) was 0.5 µg/mL (≈ 1.33 µM) and the MIC (E. coli MC 4100; [4]) was 32 µg/mL (≈ 85 µM). For the same compound, the IC50 (E. coli gyrase) was 7000 nM.

In the case of `Cc1c(N2CC[C@@H]([C@H](C)N)C2)c(F)cc2c(=O)[nH]c(=O)n(C3CC3)c12` [Example 4b, 7-[(R)-3-((S)-1-Aminoethyl)pyrrolidin-1-yl]-1-cyclopropyl-6-fluoro-8-methyl-1H-quinazolinedione Hydrochloride], the “MIC fold increase S. aureus 2554 (in parentheses)” value (S. aureus 2554) is reported as “(2x)”, the MIC (S. aureus 2552) is reported as 0.5 µg/mL and the “MIC fold increase S. aureus 2552 (in parentheses)” value (S. aureus 2552) is reported as “(4x)”. It also gave an MIC (S. aureus 29213; Staphylococcus aureus, 29213, read-out: Minimum Inhibitory Concentrations S. aureus 29213) of 0.25 µg/mL, an MIC (S. pyogenes C203; C203, read-out: Minimum Inhibitory Concentrations S. pyogenes C203) of 0.015 µg/mL and an MIC (E. coli B90; B90, read-out: Minimum Inhibitory Concentrations E. coli B90) of 0.13 µg/mL. For the same compound, the MIC (E. faecalis RB1; RB1, read-out: Minimum Inhibitory Concentrations E. faecalis RB1) was 0.13 µg/mL, the MIC (E. coli Tol C) was 0.13 µg/mL and the MIC (E. coli MC 4100; MC4100, read-out: Minimum Inhibitory Concentrations E. coli MC 4100) was 4 µg/mL. For the same compound, the “MIC fold increase S. aureus 2558 (in parentheses)” value (S. aureus 2558) was “(8x)”, the MIC (N. gonorrhoeae 2637) was 0.25 µg/mL and the MIC (N. gonorrhoeae 2709) was 2 µg/mL. For the same compound, the “MIC fold increase N. g. 2709 (in parentheses)” value (N. gonorrhoeae 2709) was “(8x)”, the IC50 (E. coli gyrase) was 600 nM and the “MIC fold increase N. g. 2693 (in parentheses)” value (N. gonorrhoeae 2693) was “(8x)”. The PD50 (S. pyogenes) was 3.6 mg/kg and the MIC (S. aureus UC-76) was 0.13 µg/mL.
